Assay results: patent US20250235486A1, “Method of Producing Insulin-Producing Cells” (Monash University, priority 2022, published 2025)

What was measured:
[1] = test system: Human pancreatic ductal epithelial cells; test: qRT-PCR after 2- and 7-day EZH2 inhibitor stimulation of human pancreatic ductal epithelial cells; assay type: cell-based; settings: GSK-126 10 μM
Experimental: Human pancreatic ductal epithelial cells were purchased from AddexBio and cultured according to the recommended protocols. Cells were cultured in complete Keratinocyte Serum-Free Media (supplemented with human recombinant EGF, Bovine Pituitary Extract and Antibiotic-Antimycotic [Gibco]. All cell cultures were grown and maintained in a 37° C., 5% C02 environment using a tissue culture incubator. Once cells reached 70-80% confluency, passaging was performed using 0.05% Trypsin EDTA (Sigma). […] Vehicle control was DMSO. Cells were treated over 2 main timepoints, with harvests occurring following 2, and 7 days. For the 2-day time point, cells were seeded and left to adhere in plates for 24 hours. Treatment was initiated with the first dose made up in complete K-SFM. The second dose was delivered 24 hours later following a media change. For the longer period of 7 days, cells were initially seeded in 10 cm plates, with doses delivered on alternate days following the initial period of 24 hours. […] Ct values of experimental genes were normalized to housekeeping gene [MUT]. Fold change of mRNA abundance was calculated by normalizing drug treated values to vehicular controls. […] RNA was isolated using the RNeasy Kit according to the manufacturer's directions. Following measurement of RNA concentration using a QIAxpert System, 1 μg of RNA was used for cDNA synthesis by a high-capacity cDNA Reverse Transcription Kit (Applied Biosystems). The resulting cDNA reaction mix was diluted 1:6 to make up the final template cDNA used subsequently. […] Ct values of experimental genes were normalized to housekeeping gene [MUT]. Fold change of mRNA abundance was calculated by normalizing drug treated values to vehicular controls.

[2] = test system: H3K27me3 or H3K9/14ac content at the promoters of INS-IGF2, NGN3 and PDX1 in human pancreatic ductal epithelial cells; test: Quantitative PCR chromatin immunoprecipitation (q-PCR ChIP) after 2- and 7-day stimulation; assay type: cell-based; settings: 2-day stimulation (FIG. 12b)
Experimental: Approximately 5×10^6 cells were fixed in 1% formaldehyde for 10 minutes, with a further 10-minute incubation in 0.125M glycine to quench the cross-linking reaction. The fixed cell pellet was lysed following resuspension and homogenization in sodium dodecyl (lauryl) sulphate (SOS) lysis buffer (1% SOS, 10 mM EDTA, 50 mM Tris-HCl pH 8.1) with a protease inhibitor cocktail (Roche Diagnostics GmBH, Mannheim, Germany) included. Samples were incubated on ice for 5 minutes following which sonication was performed to shear chromatin between 200-600 bp. Sonicated chromatin was resuspended in ChIP Dilution Buffer (0.01% SOS, 1.1% Triton X-100, 1.2 mM EDTA, 16.7 mM Tris-HCl pH 8.0 and 167 mM NaCl). 20 μl of DynabeadsR Protein A (Invitrogen, Carlsbad, CA, USA) was added to each sample and pre-cleared. Overnight incubation at 4° C. with H3K27me3 or H3K9/14ac antibody was used for immunoprecipitation of chromatin, as previously described. Immunoprecipitates were collected by magnetic isolation and washed sequentially with low salt and high salt buffers. Immunoprecipitated DNA was then eluted from solution with 0.1 M NaHCO3 containing 1% SIDS. Protein-DNA cross-links were reversed by incubation of samples in Proteinase K (Sigma, St. Louis, MO, USA) for 2 hours at 62° C. DNA was purified using a Qiagen MinElute column (Qiagen Inc., Valencia, CA, USA). H3K27me3 or H3K9/14ac content at the promoters of the INS-IGF2, NGN3 and PDX1 genes were assessed by qPCR using primers designed from the integrative ENCODE resource.

[3] = 2 days, EPZ6438 1 μM, Triptolide 20 nM
[4] = 7 days, EPZ6438 1 μM, Triptolide 20 nM

For `CC[C@H](C)n1cc(C)c2c(C(=O)NCc3c(C)cc(C)[nH]c3=O)cc(-c3ccc(N4CCNCC4)nc3)cc21` [GSK126, N-[(1,2-Dihydro-4,6-dimethyl-2-oxo-3-pyridinyl)methyl]-3-methyl-1-[(1S)-1-methylpropyl]-6-[6-(1-piperazinyl)-3-pyridinyl]-1H-indole-4-carboxamide], the “MAFA mRNA levels” value ([1]; 2-day point, Triptolide 20 nM) was “increased in a statistically significant manner”, the “Alpha-amylase (AMY2A) transcripts” value ([1]; 2 days) was “increased significantly” and the CK19 expression [1, 3] was “statistically significant decreases”. For the same molecule, the “NGN3 mRNA levels” value [1, 3] was “significantly elevated”, the “insulin transcripts, mature mRNA (INS)” value [1, 3] was “elevations” and the “insulin transcripts, unprocessed heterogenous nuclear form (INS hnRNA)” value [1, 3] was “elevations”. For the same molecule, the “NGN3 mRNA levels” value [1, 4] was “Further increases”, the “insulin transcripts, mature mRNA (INS)” value [1, 4] was “even further increases” and the “insulin transcripts, unprocessed heterogenous nuclear form (INS hnRNA)” value [1, 4] was “even further increases”. For the same molecule, the “H3K27me3 content of chromatin associated with NGN3 promoter” value [2] was “significantly reduced”, the “H3K27me3 content of chromatin associated with PDX1 promoter” value [2] was “significantly reduced” and the “H3K27me3 content of chromatin associated with the INS promoter domain” value [2] was “significantly reduced”.
